# Key:
# Enterococcus sp. = experiment: in vitro antibacterial evaluation, MIC by broth dilution; assay type: cell-based; conditions: broth dilution, 18 hours at 35° C.; for MIC Enterococcus faecalis (ATCC 29212): strain ATCC 29212; for MIC Enterococcus faecalis (GC 2242): strain GC 2242; for MIC Enterococcus faecium (GC 2243): strain GC 2243; for MIC Enterococcus faecalis (GC 2691): strain GC 2691; for MIC Enterococcus faecalis (GC 3059): strain GC 3059; for MIC Enterococcus faecalis (GC 4552): strain GC 4552; for MIC Enterococcus faecalis (GC 4553): strain GC 4553; for MIC Enterococcus faecalis (GC 4554): strain GC 4554; for MIC Enterococcus faecium (GC 4556): strain GC 4556; for MIC Enterococcus faecium (GC 4557): strain GC 4557; for MIC Enterococcus avium (GC 4558): strain GC 4558; for MIC Enterococcus faecalis (GC 6189): strain GC 6189
# Outline: (§1)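 Inoculum 5×10^5 CFU/mL; concentrations 64 to 0.06 μg/mL; MIC defined as lowest inhibitory level. Conducted by broth dilution under NCCLS guidelines.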
# Escherichia coli = experiment: as above; assay type: cell-based
# Outline: as §1
# Staphylococcus sp. = experiment: as above; assay type: cell-based; conditions: broth dilution, 18 hours at 35° C.; for MIC Staphylococcus aureus (GC 1131): strain GC 1131
# Outline: as §1
# Streptococcus sp. = experiment: as above; assay type: cell-based; conditions: broth dilution, 18 hours at 35° C.; for MIC Streptococcus pneumoniae (ATCC 6301): strain ATCC 6301; for MIC Streptococcus pneumoniae (GC 1894): strain GC 1894; for MIC Streptococcus pyogenes (GC 4563): strain GC 4563; for MIC Streptococcus agalactiae (GC 4564): strain GC 4564; for MIC Streptococcus pneumoniae (GC 4565): strain GC 4565
# Outline: as §1
# [1] = system: Staphylococcus aureus-SMITH (GC 4543); experiment: acute lethal infection in mice; assay type: in vivo; conditions: acute lethal infection, female CD-1 mice, intraperitoneal challenge, intravenous 30 min. after infection, 7 day survival
# Outline: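 Female CD-1 mice (20±2 g) got an intraperitoneal bacterial challenge lethal to untreated controls within 24–48 hr. Compound was dosed intravenously 30 min after infection, five mice per dose. ED50 was calculated from 7-day survival pooled across 3 tests.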
compound,measurement,setting,value
"COc1ccc(Oc2cccc(C3OCC4OC(OC5C(CO)OC(Oc6ccc(CC7NC(=O)C(C(C)c8ccccc8)NC(=O)CNC(=O)C(CO)NC(=O)C(C(O)C8CNC(=N)N8C8OC(CO)C(O)C(O)C8O)NC(=O)C(C(O)C8CNC(=N)N8)NC7=O)cc6)C(O)C5O)C(O)C(O)C4O3)c2)cc1 (stereo not drawn) [Example 180, Cyclo[glycyl-β-methylphenylalanyl-O-[4-O-[4,6-O-[3-(4-methoxyphenoxy)benzylidene]hexopyranosyl]hexopyranosyl]tyrosyl-3-(2-iminoimidazolidin-4-yl)seryl-3-(3-hexopyranosyl-2-iminoimidazolidin-4-yl)serylseryl]]",MIC Enterococcus faecalis (ATCC 29212),Enterococcus sp.; inoculum 5×10^5 CFU/mL,4 µg/mL
same,MIC Enterococcus faecalis (GC 2242),Enterococcus sp.; inoculum 5×10^5 CFU/mL,4 µg/mL
same,MIC Enterococcus faecium (GC 2243),Enterococcus sp.; inoculum 5×10^5 CFU/mL,2 µg/mL
same,MIC Enterococcus faecalis (GC 2691),Enterococcus sp.; inoculum 5×10^5 CFU/mL,2 µg/mL
same,MIC Enterococcus faecalis (GC 3059),Enterococcus sp.; inoculum 5×10^5 CFU/mL,2 µg/mL
same,MIC Enterococcus faecalis (GC 4552),Enterococcus sp.; inoculum 5×10^5 CFU/mL,2 µg/mL
same,MIC Enterococcus faecalis (GC 4553),Enterococcus sp.; inoculum 5×10^5 CFU/mL,2 µg/mL
same,MIC Enterococcus faecalis (GC 4554),Enterococcus sp.; inoculum 5×10^5 CFU/mL,2 µg/mL
same,MIC Enterococcus faecium (GC 4556),Enterococcus sp.; inoculum 5×10^5 CFU/mL,2 µg/mL
same,MIC Enterococcus faecium (GC 4557),Enterococcus sp.; inoculum 5×10^5 CFU/mL,2 µg/mL
same,MIC Enterococcus avium (GC 4558),Enterococcus sp.; inoculum 5×10^5 CFU/mL,2 µg/mL
same,MIC Enterococcus faecalis (GC 6189),Enterococcus sp.; inoculum 5×10^5 CFU/mL,2 µg/mL
same,MIC Enterococcus faecalis (ATCC 29212),Enterococcus sp.,4 µg/mL
same,MIC Enterococcus faecalis (GC 2242),Enterococcus sp.,4 µg/mL
same,MIC Enterococcus faecium (GC 2243),Enterococcus sp.,2 µg/mL
same,MIC Enterococcus faecalis (GC 2691),Enterococcus sp.,2 µg/mL
same,MIC Enterococcus faecalis (GC 3059),Enterococcus sp.,2 µg/mL
same,MIC Enterococcus faecalis (GC 4552),Enterococcus sp.,2 µg/mL
same,MIC Enterococcus faecalis (GC 4553),Enterococcus sp.,2 µg/mL
same,MIC Enterococcus faecalis (GC 4554),Enterococcus sp.,2 µg/mL
same,MIC Enterococcus faecium (GC 4556),Enterococcus sp.,2 µg/mL
same,MIC Enterococcus faecium (GC 4557),Enterococcus sp.,2 µg/mL
same,MIC Enterococcus avium (GC 4558),Enterococcus sp.,2 µg/mL
same,MIC Enterococcus faecalis (GC 6189),Enterococcus sp.,2 µg/mL
same,MIC Escherichia coli (ATCC 25922),"Escherichia coli; strain ATCC 25922, 18 hours at 35° C.",>64 µg/mL
same,MIC Escherichia coli (GC 4559),"Escherichia coli; strain GC 4559, 18 hours at 35° C.",64 µg/mL
same,MIC Escherichia coli (GC 4560),"Escherichia coli; strain GC 4560, 18 hours at 35° C.",2 µg/mL
same,MIC Staphylococcus aureus (GC 1131),Staphylococcus sp.; inoculum 5×10^5 CFU/mL,2 µg/mL
same,MIC Staphylococcus aureus (ATCC 29213),Staphylococcus sp.; strain ATCC 29213,2 µg/mL
same,MIC Staphylococcus aureus (GC 1131),Staphylococcus sp.,2 µg/mL
same,MIC Staphylococcus aureus (GC 3051),Staphylococcus sp.; strain GC 3051,1 µg/mL
same,MIC Staphylococcus aureus (GC 3053),Staphylococcus sp.; strain GC 3053,2 µg/mL
same,MIC Staphylococcus aureus (GC 4541),Staphylococcus sp.; strain GC 4541,2 µg/mL
same,MIC Staphylococcus aureus (GC 4542),Staphylococcus sp.; strain GC 4542,2 µg/mL
same,MIC Staphylococcus aureus (GC 4544),Staphylococcus sp.; strain GC 4544,2 µg/mL
same,MIC Staphylococcus aureus (GC 4545),Staphylococcus sp.; strain GC 4545,2 µg/mL
same,MIC Staphylococcus aureus-SMITH (GC 4543),Staphylococcus sp.; strain GC 4543,2 µg/mL
same,MIC Staphylococcus haemolyticus (GC 4546),Staphylococcus sp.; strain GC 4546,2 µg/mL
same,MIC Coagulase Negative Staphylococcus (GC 4547),Staphylococcus sp.; strain GC 4547,2 µg/mL
same,MIC Coagulase Negative Staphylococcus (GC 4548),Staphylococcus sp.; strain GC 4548,1 µg/mL
same,MIC Coagulase Negative Staphylococcus (GC 4549),Staphylococcus sp.; strain GC 4549,1 µg/mL
same,MIC Coagulase Negative Staphylococcus (GC 4551),Staphylococcus sp.; strain GC 4551,1 µg/mL
same,MIC Coagulase Negative Staphylococcus (GC 6257),Staphylococcus sp.; strain GC 6257,0.5 µg/mL
same,MIC Streptococcus pneumoniae (ATCC 6301),Streptococcus sp.; inoculum 5×10^5 CFU/mL,<0.06 µg/mL
same,MIC Streptococcus pneumoniae (GC 1894),Streptococcus sp.; inoculum 5×10^5 CFU/mL,<0.06 µg/mL
same,MIC Streptococcus pyogenes (GC 4563),Streptococcus sp.; inoculum 5×10^5 CFU/mL,<0.06 µg/mL
same,MIC Streptococcus agalactiae (GC 4564),Streptococcus sp.; inoculum 5×10^5 CFU/mL,<0.06 µg/mL
same,MIC Streptococcus pneumoniae (GC 4565),Streptococcus sp.; inoculum 5×10^5 CFU/mL,<0.06 µg/mL
same,MIC Streptococcus pneumoniae (ATCC 6301),Streptococcus sp.,<0.06 µg/mL
same,MIC Streptococcus pneumoniae (GC 1894),Streptococcus sp.,<0.06 µg/mL
same,MIC Streptococcus pyogenes (GC 4563),Streptococcus sp.,<0.06 µg/mL
same,MIC Streptococcus agalactiae (GC 4564),Streptococcus sp.,<0.06 µg/mL
same,MIC Streptococcus pneumoniae (GC 4565),Streptococcus sp.,<0.06 µg/mL
same,"median effective dose (ED50), Staphylococcus aureus-SMITH (GC 4543)",[1],0.05 mg/kg

# From patent US6914045B2, “Glycopeptide antibiotics” (Wyeth Holdings Corporation, priority 2001, dated 2005)
